Reference: patent EP0643964A2 (priority 1993, dated 1995)
“And” between values parts separate entries of the source, which are not always exact repeats. Equal values may be shown once. Read-outs that look alike come from different tables or passages of the source.

Tests used:
HIV (RETROVIRUS) = experiment: Evolution of HIV infected patients (CD4+ counts); assay type: in vivo, human; conditions: for number of CD4+ cells in blood: individual patients 1-4
Description: One group experiment consisted in 6 volunteer patients males and females aged between 22 and 35. […] Patient 5 and patient 6, just received saline by same route and frequency as treated patients.
The evolution of the disease in the analyzed patients was done by counting the number of CD4+ cells/mm³ blood and the CD4/CD8 ratio. Blood samples were collected every 15 days.
Treatment of patients started after the fourth sample extraction.

[1] = tested on: P815 H-^d mastocytoma cells; experiment: Mastocytoma transplanted BALB/c mice, peritoneal cell count; assay type: in vivo; conditions: for Cellular count ± STD / I/C: Percentual increment over control growth: Group A
Experimental: Two groups of BALB/c mice were injected with 15X10⁶ P815 H-^d mastocytoma cells by intraperitoneal route. […] The other group (B) was treated with saline.
On the third day assay and for the next three days, 5 mice per group were sacrificed. The peritoneal cavity was washed with phosphate buffered saline (PBS) and the ascitic fluid aspirated with syringe and centrifuged for 10 minutes at 500 Xg. The supernatant was then discarded and the cells diluted in 1% Trypan blue were counted on a Neubauer chamber. The cell count for each group can be observed in Table 3.

canine parvovirus (CPV) = assay type: in vivo, dogs; conditions: for Viral titers (hemagglutination): Treated group (A): 5 ml 2% lidocaine i.v. twice a day 2 days; for Viral titers of enteric homogenates: Treated group (A), titers obtained on Vero cells
M3 tumor = experiment: M3 transplanted mice, tumor area (lidocaine and epidoxorrubicine); assay type: in vivo

Compound: CCN(CC)CC(=O)Nc1c(C)cccc1C [lidocaine]
- CD4 counting (HIV (RETROVIRUS); all the treated patients, controls decreased): increase or no decrease
- number of CD4+ cells in blood (HIV (RETROVIRUS); sample 1 (every 2 weeks), before treatment): 480 cells/mm³ and 294 cells/mm³ and 230 cells/mm³ and 500 cells/mm³
- number of CD4+ cells in blood (HIV (RETROVIRUS); sample 2, before treatment): 475 cells/mm³ and 294 cells/mm³ and 238 cells/mm³ and 496 cells/mm³
- number of CD4+ cells in blood (HIV (RETROVIRUS); sample 3, before treatment): 475 cells/mm³ and 280 cells/mm³ and 235 cells/mm³ and 496 cells/mm³
- number of CD4+ cells in blood (HIV (RETROVIRUS); sample 4, last before treatment): 480 cells/mm³ and 270 cells/mm³ and 234 cells/mm³ and 485 cells/mm³
- Cellular count ± STD ([1]; 0.1 ml 0.5% lidocaine 24 h after transplant, 48 Hs p-t, control 5.30E+07): 2.85E+07 ± 0.78 millions of cells
- I/C: Percentual increment over control growth ([1]; 48 Hs p-t): -46.18%
- I/C: Percentual increment over control growth ([1]; 72 Hs p-t): -37.11%
- Cellular count ± STD ([1]; 72 Hs p-t, control 1.59E+08): 1.00E+08 ± 3.38 millions of cells
- I/C: Percentual increment over control growth ([1]; 96 Hs p-t): 27.15%
- reduction in the growth rate ([1]; first 24 hours of lidocaine treatment, decreasing 10% per day afterwards): ~50%
- Mortality (canine parvovirus (CPV); CPV infected dogs, group A (treated), all controls died by 60 hours): no mortality
- Viral titers (hemagglutination) (canine parvovirus (CPV); 12 hrs. after first signs): 0 inverse of the last dilution which agglutinated sheep red cells
- Viral titers (hemagglutination) (canine parvovirus (CPV); 24 hrs.): 16 inverse of the last dilution which agglutinated sheep red cells
- Viral titers (hemagglutination) (canine parvovirus (CPV); 36 hrs.): 320 inverse of the last dilution which agglutinated sheep red cells
- Viral titers (hemagglutination) (canine parvovirus (CPV); 48 hrs.): 320 inverse of the last dilution which agglutinated sheep red cells
- Viral titers (hemagglutination) (canine parvovirus (CPV); 60 hrs.): 160 inverse of the last dilution which agglutinated sheep red cells
- Viral titers (hemagglutination) (canine parvovirus (CPV); 72 hrs.): 40 inverse of the last dilution which agglutinated sheep red cells
- Viral titers (hemagglutination) (canine parvovirus (CPV); 84 hrs.): 40 inverse of the last dilution which agglutinated sheep red cells
- Viral titers (hemagglutination) (canine parvovirus (CPV); 96 hrs.): 40 inverse of the last dilution which agglutinated sheep red cells
- Viral titers of enteric homogenates (canine parvovirus (CPV); 12 hrs.): 2.1 x 10^2 TCID₅₀/ml
- Viral titers of enteric homogenates (canine parvovirus (CPV); 24 hrs.): 0.1 x 10^4 TCID₅₀/ml
- Viral titers of enteric homogenates (canine parvovirus (CPV); 36 hrs.): 0.5 x 10^7 TCID₅₀/ml
- Viral titers of enteric homogenates (canine parvovirus (CPV); 48 hrs.): 0.3 x 10^7 TCID₅₀/ml
- Viral titers of enteric homogenates (canine parvovirus (CPV); 60 hrs.): 2.3 x 10^5 TCID₅₀/ml
- Viral titers of enteric homogenates (canine parvovirus (CPV); 72 hrs.): 6.3 x 10^4 TCID₅₀/ml
- Viral titers of enteric homogenates (canine parvovirus (CPV); 84 hrs.): 5.8 x 10^4 TCID₅₀/ml
- Viral titers of enteric homogenates (canine parvovirus (CPV); 96 hrs.): 6.0 x 10^4 TCID₅₀/ml
- Signs of the disease (canine parvovirus (CPV); group A, after 48 hours from the beginning of treatment): none of the animals showed signs of the disease
- Histological aspect of enteric mucosa (canine parvovirus (CPV); group A, by 72 hours post-treatment): normal histological aspect
- Area (tumor) (M3 tumor; day 7 p-t (day 0), lidocaine 0.1 ml 0.05% every 7 days, epidoxorrubicine 0.125 ml 0.2% every 7 days, combination: lidocaine 2 days after epidoxorrubicine): 0.46
- I/Ø: Percentual increment over tumor in day 0 (day 7 p-t) (M3 tumor; day 10 p-t, saline control 103.47): 18.75%
- Area (tumor) (M3 tumor; day 12 p-t, regimens as Table 5 footnotes, saline control 1.56): 0.70
- I/Ø: Percentual increment over tumor in day 0 (day 7 p-t) (M3 tumor; day 12 p-t, saline control 245.61): 51.56%
- Area (tumor) (M3 tumor; day 14 p-t, regimens as Table 5 footnotes, saline control 2.06): 0.96
- I/Ø: Percentual increment over tumor in day 0 (day 7 p-t) (M3 tumor; day 14 p-t, saline control 357.57): 107.81%
- Area (tumor) (M3 tumor; day 16 p-t, regimens as Table 5 footnotes, saline control 2.78): 1.11
- I/Ø: Percentual increment over tumor in day 0 (day 7 p-t) (M3 tumor; day 16 p-t, saline control 516.74): 142.19%
- Area (tumor) (M3 tumor; day 18 p-t, regimens as Table 5 footnotes, saline control 3.61): 1.38
- Area (tumor) (M3 tumor; day 21 p-t, regimens as Table 5 footnotes, saline control 4.61): 1.93
- Area (tumor) (M3 tumor; day 23 p-t, regimens as Table 5 footnotes, saline control 5.49): 2.90
- Area (tumor) (M3 tumor; day 25 p-t, regimens as Table 5 footnotes, saline control 6.24): 3.57
- I/Ø: Percentual increment over tumor in day 0 (day 7 p-t) (M3 tumor; day 25 p-t, saline control 1286.33): 676.56%
